Our source for the IC50 values is patent publication US20140206681A1, “BTK INHIBITORS” (priority 2013, published 2014).

For experiment [1], the target named is T1, BTK enzyme (recombinant full-length BTK, hBTK) (Homo sapiens, UniProt Q06187).
T1 construct: recombinant protein from baculovirus-transfected Sf9 cells: full-length BTK, 6HIS-tag cleaved; 6HIS (cleaved yes); made in house; host or cells: baculovirus-transfected Sf9 cells
The experiment is described as follows: BTK enzyme activity assay, LANCE TR-FRET. The following applies: 50 pM hBTK, 2 μM biotin-A5-peptide, 25 μM ATP; 60 min compound & enzyme incubation; read-out: IC50 BTK activity value. It is filed as biochemical.

In experiment [2] the test system is HeLa cells. The experiment in a line: [3H]Adenosine uptake functional cellular assay. It is filed as cell-based. The following applies: Homo sapiens, HeLa, accumulation of [3H]adenosine into HeLa cells; compound range 10 μM to […]; read-out: Adenosine uptake inhibition IC50. The method in brief: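 Inhibition of adenosine uptake was measured in HeLa cells (ATCC CCL-2) by following accumulation of tritiated adenosine. Cells were kept overnight at 37° C. with 5% (v/v) CO2, then switched to 40 μL HBSS plus 5% (v/v) FBS. 20 μL of 500 nM [3H]adenosine was added, and uptake was counted on a Topcount NXT reader.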

Structures are written as SMILES.

T1 sequence (Q06187 whole entry): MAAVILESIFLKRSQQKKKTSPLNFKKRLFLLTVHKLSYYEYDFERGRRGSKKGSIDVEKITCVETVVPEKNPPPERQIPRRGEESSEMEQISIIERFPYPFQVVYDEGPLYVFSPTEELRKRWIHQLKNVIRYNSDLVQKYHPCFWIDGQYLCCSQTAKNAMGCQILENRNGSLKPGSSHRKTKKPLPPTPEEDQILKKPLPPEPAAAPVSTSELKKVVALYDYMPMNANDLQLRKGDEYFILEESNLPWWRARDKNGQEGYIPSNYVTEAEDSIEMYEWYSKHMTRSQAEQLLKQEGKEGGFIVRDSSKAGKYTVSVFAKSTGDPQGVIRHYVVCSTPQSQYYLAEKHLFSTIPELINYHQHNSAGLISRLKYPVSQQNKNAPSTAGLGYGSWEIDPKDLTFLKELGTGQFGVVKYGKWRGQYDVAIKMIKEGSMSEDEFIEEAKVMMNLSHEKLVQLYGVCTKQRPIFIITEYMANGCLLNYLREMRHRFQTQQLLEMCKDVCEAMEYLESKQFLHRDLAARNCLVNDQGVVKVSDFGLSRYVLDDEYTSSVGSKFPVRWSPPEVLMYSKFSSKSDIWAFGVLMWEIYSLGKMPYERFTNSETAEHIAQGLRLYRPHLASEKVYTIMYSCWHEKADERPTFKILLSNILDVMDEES

Take `Nc1ncc(Cl)n2c([C@@H]3CC[C@H]4CCC(=O)N4C3)nc(-c3ccc(C(=O)Nc4cc(C(F)(F)F)ccn4)cc3Cl)c12` [Example 194, 4-{8-amino-5-chloro-3-[(6R,8aS)-3-oxooctahydroindolizin-6-yl]imidazo[1,5-a]pyrazin-1-yl}-3-chloro-N-[4-(trifluoromethyl)pyridin-2-yl]benzamide]: the IC50 was found to be 0.39 nM in experiment [1] and 226 nM in experiment [2].
On the same counts, the results for `Cc1cnc(NC(=O)c2ccc(-c3nc([C@@H]4CC[C@H]5CCC(=O)N5C4)n4ccnc(N)c34)c(Cl)c2)s1` [Example 195, 4-(8-amino-3-((6R,8aS)-3-oxooctahydroindolizin-6-yl)imidazo[1,5-a]pyrazin-1-yl)-3-chloro-N-(5-methylthiazol-2-yl)benzamide] are 0.63 nM and 175 nM.
Consider `Cc1cnc(NC(=O)c2ccc(-c3nc([C@@H]4CC[C@H]5CCC(=O)N5C4)n4c(Cl)cnc(N)c34)c(Cl)c2)s1` [Example 196, 4-(8-amino-5-chloro-3-((6R,8aS)-3-oxooctahydroindolizin-6-yl)imidazo[1,5-a]pyrazin-1-yl)-3-chloro-N-(5-methylthiazol-2-yl)benzamide], for which the 50% inhibitory concentration (IC50) in experiment [1] was found to be 1.5 nM; in experiment [2], 741 nM.
As for `Cc1cc(C(=O)Nc2cc(C(F)(F)F)ccn2)c(F)cc1-c1nc([C@@H]2CC[C@H]3CCC(=O)N3C2)n2c(Cl)cnc(N)c12` [Example 197, 4-(8-amino-5-chloro-3-((6R,8aS)-3-oxooctahydroindolizin-6-yl)imidazo[1,5-a]pyrazin-1-yl)-2-fluoro-5-methyl-N-(4-(trifluoromethyl)pyridin-2-yl)benzamide], the IC50 in experiment [1] came to 7.8 nM; in experiment [2], 199 nM.
On to `Cc1cc(C(=O)Nc2cc(C(F)(F)F)ccn2)c(F)cc1-c1nc([C@@H]2CC[C@H]3CCC(=O)N3C2)n2ccnc(N)c12` [Example 198, 4-(8-amino-3-((6R,8aS)-3-oxooctahydroindolizin-6-yl)imidazo[1,5-a]pyrazin-1-yl)-2-fluoro-5-methyl-N-(4-(trifluoromethyl)pyridin-2-yl)benzamide], for which the IC50 was 8.2 nM in experiment [1] and 252 nM in experiment [2].
As for `CCOCCOc1cc(C(=O)Nc2cc(C(F)(F)F)ccn2)ccc1-c1nc([C@@H]2CC[C@H]3CCC(=O)N3C2)n2ccnc(N)c12` [Example 201, 4-{8-amino-3-[(6R,8aS)-3-oxooctahydroindolizin-6-yl]imidazo[1,5-a]pyrazin-1-yl}-3-(2-ethoxyethoxy)-N-[4-(trifluoromethyl)pyridin-2-yl]benzamide], the IC50 in experiment [1] was determined as 3.2 nM; in experiment [2], 5890 nM.
On the same counts, the results for `COc1cc(C(=O)Nc2ncc(C)s2)ccc1-c1nc([C@@H]2CC[C@H]3CCC(=O)N3C2)n2ccnc(N)c12` [Example 202, 4-{8-amino-3-[(6R,8aS)-3-oxooctahydroindolizin-6-yl]imidazo[1,5-a]pyrazin-1-yl}-3-methoxy-N-(5-methyl-1,3-thiazol-2-yl)benzamide] are 5.2 nM and 6880 nM.
With `COc1cc(C(=O)Nc2ncc(C)s2)ccc1-c1nc([C@@H]2CC[C@H]3CCC(=O)N3C2)n2c(Cl)cnc(N)c12` [Example 203, 4-{8-amino-5-chloro-3-[(6R,8aS)-3-oxooctahydroindolizin-6-yl]imidazo[1,5-a]pyrazin-1-yl}-3-methoxy-N-(5-methyl-1,3-thiazol-2-yl)benzamide], the figures for the IC50 in experiment [1] and in experiment [2] were 1.7 nM and 1730 nM, respectively.
On the same counts, the results for `C#CCCOc1cc(C(=O)Nc2cc(C(F)(F)F)ccn2)ccc1-c1nc([C@@H]2CC[C@H]3CCC(=O)N3C2)n2ccnc(N)c12` [Example 204, 4-{8-amino-3-[(6R,8aS)-3-oxooctahydroindolizin-6-yl]imidazo[1,5-a]pyrazin-1-yl}-3-(but-3-yn-1-yloxy)-N-[4-(trifluoromethyl)pyridin-2-yl]benzamide] are 0.75 nM and 1390 nM.
